Measurements published in patent US11357230B2, “Herbicidal amides” (FMC Corporation, priority 2017, dated 2022).

Legend:
Assay type in all cases: in vivo
[1] = system: Foxtail, Giant; test: Test A postemergence, giant foxtail; details: approximately 10 d
[2] = system: pigweed (Amaranthus retroflexus); test: Test A preemergence, pigweed; details: approximately 10 d
Source text: (§1) Seeds of plant species selected from barnyardgrass (Echinochloa crus-galli), kochia (Kochia scoparia), ragweed (common ragweed, Ambrosia elatior), ryegrass, Italian (Italian ryegrass, Lolium multiflorum), foxtail, green (green foxtail, Setaria viridis), and pigweed (Amaranthus retroflexus) were planted into a blend of loam soil and sand and treated preemergence with a directed soil spray using test chemicals formulated in a non-phytotoxic solvent mixture which included a surfactant. At the same time, plants selected from these weed species and also wheat (Triticum aestivum), corn (Zea mays), blackgrass (Alopecurus myosuroides), and galium (catchweed bedstraw, Galium aparine) were planted in pots containing the same blend of loam soil and sand and treated with postemergence applications of test chemicals formulated in the same manner. Plants ranged in height from 2 to 10 cm and were in the one- to two-leaf stage for the postemergence treatment. Treated plants and untreated controls were maintained in a greenhouse for approximately 10 d, after which time all treated plants were compared to untreated controls and visually evaluated for injury. Plant response ratings, summarized in Table A, are based on a 0 to 100 scale where 0 is no effect and 100 is complete control. A dash (-) response means no test result.

[3] = system: ducksalad (Heteranthera limosa); test: Test B flooded paddy test, ducksalad; details: 250 g ai/ha, Flood (paddy water), 13 to 15 d
Procedure: (§2) Plant species in the flooded paddy test selected from rice (Oryza sativa), sedge, umbrella (small-flower umbrella sedge, Cyperus difformis), ducksalad (Heteranthera limosa), and barnyardgrass (Echinochloa crus-galli) were grown to the 2-leaf stage for testing. At time of treatment, test pots were flooded to 3 cm above the soil surface, treated by application of test compounds directly to the paddy water, and then maintained at that water depth for the duration of the test. Treated plants and controls were maintained in a greenhouse for 13 to 15 d, after which time all species were compared to controls and visually evaluated. Plant response ratings, summarized in Table B, are based on a scale of 0 to 100 where 0 is no effect and 100 is complete control. A dash (-) response means no test result.

[4] = system: barnyardgrass (Echinochloa crus-galli); test: Test B flooded paddy test, barnyardgrass; details: 250 g ai/ha, Flood (paddy water), 13 to 15 d
Procedure: as §2

[5] = system: ryegrass, Italian (Italian ryegrass, Lolium multiflorum); test: Test A postemergence, Italian ryegrass; details: approximately 10 d
Source text: as §1

[6] = system: ryegrass, Italian (Italian ryegrass, Lolium multiflorum); test: Test A preemergence, Italian ryegrass; details: approximately 10 d
Source text: as §1

[7] = system: galium (catchweed bedstraw, Galium aparine); test: Test A postemergence, galium; details: approximately 10 d
Source text: as §1

[8] = system: blackgrass (Alopecurus myosuroides); test: Test A postemergence, blackgrass; details: approximately 10 d
Source text: as §1

[9] = system: ragweed (common ragweed, Ambrosia elatior); test: Test A postemergence, ragweed; details: approximately 10 d
Source text: as §1

[10] = system: corn (Zea mays); test: Test A postemergence, corn; details: approximately 10 d
Source text: as §1

[11] = system: barnyardgrass (Echinochloa crus-galli); test: Test A postemergence, barnyardgrass; details: approximately 10 d
Source text: as §1

[12] = system: Foxtail, Giant; test: Test A preemergence, giant foxtail; details: approximately 10 d
[13] = system: ragweed (common ragweed, Ambrosia elatior); test: Test A preemergence, ragweed; details: approximately 10 d
Source text: as §1

[14] = system: pigweed (Amaranthus retroflexus); test: Test A postemergence, pigweed; details: approximately 10 d
Source text: as §1

[15] = system: wheat (Triticum aestivum); test: Test A postemergence, wheat; details: approximately 10 d
Source text: as §1

[16] = system: kochia (Kochia scoparia); test: Test A preemergence, kochia; details: approximately 10 d
Source text: as §1

[17] = system: sedge, umbrella (small-flower umbrella sedge, Cyperus difformis); test: Test B flooded paddy test, umbrella sedge; details: 250 g ai/ha, Flood (paddy water), 13 to 15 d
Procedure: as §2

[18] = system: barnyardgrass (Echinochloa crus-galli); test: Test A preemergence, barnyardgrass; details: approximately 10 d
Source text: as §1

[19] = system: kochia (Kochia scoparia); test: Test A postemergence, kochia; details: approximately 10 d
Source text: as §1

[20] = system: rice (Oryza sativa); test: Test B flooded paddy test, rice; details: 250 g ai/ha, Flood (paddy water), 13 to 15 d
Procedure: as §2

CN1C[C@H](c2ccc(C(F)(F)F)cc2)[C@@H](C(=O)Nc2cccc(F)c2F)C1=NN1CCOCC1 (relative stereo) [Compound 7]
Plant response rating (0 to 100 scale, 0 is no effect, 100 is complete control) ([1]; 31 g ai/ha): 0
Plant response rating (0 to 100 scale, 0 is no effect, 100 is complete control) ([1]; 125 g ai/ha): 50
Plant response rating (0 to 100 scale, 0 is no effect, 100 is complete control) ([2]; 31 g ai/ha): 0
Plant response rating (0 to 100 scale, 0 is no effect, 100 is complete control) ([2]; 125 g ai/ha): 10
Plant response rating (scale of 0 to 100, 0 is no effect, 100 is complete control) [3]: 45
Plant response rating (scale of 0 to 100, 0 is no effect, 100 is complete control) [4]: 10
Plant response rating (0 to 100 scale, 0 is no effect, 100 is complete control) ([5]; 31 g ai/ha): 10
Plant response rating (0 to 100 scale, 0 is no effect, 100 is complete control) ([5]; 125 g ai/ha): 30
Plant response rating (0 to 100 scale, 0 is no effect, 100 is complete control) ([6]; 31 g ai/ha): 0
Plant response rating (0 to 100 scale, 0 is no effect, 100 is complete control) ([6]; 125 g ai/ha): 0
Plant response rating (0 to 100 scale, 0 is no effect, 100 is complete control) ([7]; 31 g ai/ha): 60
Plant response rating (0 to 100 scale, 0 is no effect, 100 is complete control) ([7]; 125 g ai/ha): 70
Plant response rating (0 to 100 scale, 0 is no effect, 100 is complete control) ([8]; 31 g ai/ha): 30
Plant response rating (0 to 100 scale, 0 is no effect, 100 is complete control) ([8]; 125 g ai/ha): 30
Plant response rating (0 to 100 scale, 0 is no effect, 100 is complete control) ([9]; 31 g ai/ha): 0
Plant response rating (0 to 100 scale, 0 is no effect, 100 is complete control) ([9]; 125 g ai/ha): 50
Plant response rating (0 to 100 scale, 0 is no effect, 100 is complete control) ([10]; 31 g ai/ha): 0
Plant response rating (0 to 100 scale, 0 is no effect, 100 is complete control) ([10]; 125 g ai/ha): 0
Plant response rating (0 to 100 scale, 0 is no effect, 100 is complete control) ([11]; 31 g ai/ha): 0
Plant response rating (0 to 100 scale, 0 is no effect, 100 is complete control) ([11]; 125 g ai/ha): 50
Plant response rating (0 to 100 scale, 0 is no effect, 100 is complete control) ([12]; 31 g ai/ha): 50
Plant response rating (0 to 100 scale, 0 is no effect, 100 is complete control) ([12]; 125 g ai/ha): 90
Plant response rating (0 to 100 scale, 0 is no effect, 100 is complete control) ([13]; 31 g ai/ha): 0
Plant response rating (0 to 100 scale, 0 is no effect, 100 is complete control) ([13]; 125 g ai/ha): 0
Plant response rating (0 to 100 scale, 0 is no effect, 100 is complete control) ([14]; 31 g ai/ha): 0
Plant response rating (0 to 100 scale, 0 is no effect, 100 is complete control) ([14]; 125 g ai/ha): 60
Plant response rating (0 to 100 scale, 0 is no effect, 100 is complete control) ([15]; 31 g ai/ha): 0
Plant response rating (0 to 100 scale, 0 is no effect, 100 is complete control) ([15]; 125 g ai/ha): 10
Plant response rating (0 to 100 scale, 0 is no effect, 100 is complete control) ([16]; 31 g ai/ha): 0
Plant response rating (0 to 100 scale, 0 is no effect, 100 is complete control) ([16]; 125 g ai/ha): 20
Plant response rating (scale of 0 to 100, 0 is no effect, 100 is complete control) [17]: 0
Plant response rating (0 to 100 scale, 0 is no effect, 100 is complete control) ([18]; 31 g ai/ha): 10
Plant response rating (0 to 100 scale, 0 is no effect, 100 is complete control) ([18]; 125 g ai/ha): 50
Plant response rating (0 to 100 scale, 0 is no effect, 100 is complete control) ([19]; 31 g ai/ha): 0
Plant response rating (0 to 100 scale, 0 is no effect, 100 is complete control) ([19]; 125 g ai/ha): 60
Plant response rating (scale of 0 to 100, 0 is no effect, 100 is complete control) [20]: 0
